Reference: patent US11260127B2, “Mesoporous silica nanoparticles for diagnostic and therapeutic applications” (CASE WESTERN RESERVE UNIVERSITY, priority 2017, dated 2022)

Assay: In vitro RF-triggered drug release from Fe@MSN nanoparticles
Assay type: physicochemical
Settings: for drug release rate of two drugs compared: release from Fe@MSN under the same RF field
Description: FIGS. 2(A-E) illustrate in vitro evaluation of radiofrequency (RF)-triggered drug release from Fe@MSN nanoparticles. (A) The release of DOX was triggered from Fe@MSN particles using an RF field at different frequencies (1, 20, 50 and 380 kHz; n=4). […] (C) Effect of elevated temperature on the drug release from Fe@MSN particles with an incubation time of 60 min (n=4; unpaired t-test P<0.0001). (D) Drug release from Fe@MSN at different particle concentration under an RF field at 50 kHz. (E) Drug release from Fe@MSN particles at different depths in the RF source (RF field: 50 kHz).
Further, when the temperature of the Fe@MSN suspension was elevated to 60° C. for 60 min by external heating, negligible drug was released ([…]). These two findings indicate that the triggered release mechanism is not based on hyperthermic effects applications, thereby minimizing the role of Neel relaxation phenomenon in RF-triggered drug release from the Fe@MSN nanoparticles.
Similar drug release rate per nanochain particle was observed from suspensions of dramatically different concentrations of Fe@MSN nanoparticles when subjected to the same RF field.
The RF-triggered drug release is nearly independent of the type of drug molecules.

## COc1cccc2c1C(=O)c1c(O)c3c(c(O)c1C2=O)C[C@@](O)(C(=O)CO)C[C@@H]3O[C@H]1C[C@H](N)[C@H](O)[C@H](C)O1 [DOX, doxorubicin]
RF field, very low Fe@MSN concentration, 1 or 10 kHz
  RF-triggered drug release rate: triggered in a controlled manner
  drug release rate of two drugs compared: almost identical

## CC(=N)NCc1cccc(CN)c1 [1400 W]
  drug release rate of two drugs compared: almost identical
